{"source": "the kinase profiling compilation of Christmann-Franck et al. (2016)"}
{"target": "AURKA (human) (UniProt O14965)", "sequence (O14965 whole entry, looked up)": "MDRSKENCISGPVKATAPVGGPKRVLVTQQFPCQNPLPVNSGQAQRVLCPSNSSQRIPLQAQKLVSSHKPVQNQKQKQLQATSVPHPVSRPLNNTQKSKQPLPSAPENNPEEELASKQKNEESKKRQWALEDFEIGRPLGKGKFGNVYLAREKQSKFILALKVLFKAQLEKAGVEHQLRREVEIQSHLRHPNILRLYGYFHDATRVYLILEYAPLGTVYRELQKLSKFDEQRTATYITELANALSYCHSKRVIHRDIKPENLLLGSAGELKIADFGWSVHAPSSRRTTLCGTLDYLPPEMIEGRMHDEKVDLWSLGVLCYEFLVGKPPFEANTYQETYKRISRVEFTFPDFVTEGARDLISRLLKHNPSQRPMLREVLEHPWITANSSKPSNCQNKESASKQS", "assay": "radiometric filter-binding kinase assay, Kinase HotSpot", "details": "compound 0.5 µM; ATP 10 µM", "units": {"residual activity": "%"}}
{"molecule": "Cc1cc2ncc(-c3ccccc3)nc2cc1C", "residual activity": 92.1}
{"molecule": "Nc1n[nH]c2nnc(-c3c(-c4ccccc4)nn4ccccc34)cc12", "residual activity": 101}
{"molecule": "O=C1Nc2ccccc2/C1=C\\c1c(Cl)[nH]c2ccccc12", "residual activity": 108}
{"target": "INSR (human) (UniProt P06213)", "assay": "radiometric filter-binding kinase assay, Kinase HotSpot", "details": "compound 0.5 µM; ATP 10 µM", "units": {"residual activity": "%"}}
{"molecule": "Cc1cc2ncc(-c3ccccc3)nc2cc1C", "residual activity": 94}
{"molecule": "Nc1n[nH]c2nnc(-c3c(-c4ccccc4)nn4ccccc34)cc12", "residual activity": 78.3}
{"molecule": "O=C1Nc2ccccc2/C1=C\\c1c(Cl)[nH]c2ccccc12", "residual activity": 91.2}
{"target": "MARK2 (human) (UniProt Q7KZI7)", "assay": "radiometric filter-binding kinase assay, Kinase HotSpot", "details": "compound 0.5 µM; ATP 10 µM", "units": {"residual activity": "%"}}
{"molecule": "Cc1cc2ncc(-c3ccccc3)nc2cc1C", "residual activity": 84.5}
{"molecule": "Nc1n[nH]c2nnc(-c3c(-c4ccccc4)nn4ccccc34)cc12", "residual activity": 104}
{"molecule": "O=C1Nc2ccccc2/C1=C\\c1c(Cl)[nH]c2ccccc12", "residual activity": 94.7}
{"target": "IKBKE (human) (UniProt Q14164)", "assay": "radiometric filter-binding kinase assay, Kinase HotSpot", "details": "compound 0.5 µM; ATP 10 µM", "units": {"residual activity": "%"}}
{"molecule": "Cc1cc2ncc(-c3ccccc3)nc2cc1C", "residual activity": 101}
{"molecule": "Nc1n[nH]c2nnc(-c3c(-c4ccccc4)nn4ccccc34)cc12", "residual activity": 95.5}
{"molecule": "O=C1Nc2ccccc2/C1=C\\c1c(Cl)[nH]c2ccccc12", "residual activity": 98}
{"target": "YES1 (human) (UniProt P07947)", "assay": "radiometric filter-binding kinase assay, Kinase HotSpot", "details": "compound 0.5 µM; ATP 10 µM", "units": {"residual activity": "%"}}
{"molecule": "Cc1cc2ncc(-c3ccccc3)nc2cc1C", "residual activity": 102}
{"molecule": "Nc1n[nH]c2nnc(-c3c(-c4ccccc4)nn4ccccc34)cc12", "residual activity": 91.1}
{"molecule": "O=C1Nc2ccccc2/C1=C\\c1c(Cl)[nH]c2ccccc12", "residual activity": 93.9}
{"target": "MAPK14 (human) (UniProt Q16539)", "sequence (Q16539 whole entry, looked up)": "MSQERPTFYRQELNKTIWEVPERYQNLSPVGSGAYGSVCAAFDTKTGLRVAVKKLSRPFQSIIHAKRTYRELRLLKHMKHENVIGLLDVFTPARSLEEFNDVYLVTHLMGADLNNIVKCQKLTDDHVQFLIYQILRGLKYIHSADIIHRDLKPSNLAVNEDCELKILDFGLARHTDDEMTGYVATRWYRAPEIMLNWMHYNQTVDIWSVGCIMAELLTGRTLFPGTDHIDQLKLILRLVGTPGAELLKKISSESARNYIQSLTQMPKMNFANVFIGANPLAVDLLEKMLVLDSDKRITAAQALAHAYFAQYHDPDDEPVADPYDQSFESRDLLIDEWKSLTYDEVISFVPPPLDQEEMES", "assay": "radiometric filter-binding kinase assay, Kinase HotSpot", "details": "compound 0.5 µM; ATP 10 µM", "units": {"residual activity": "%"}}
{"molecule": "Cc1cc2ncc(-c3ccccc3)nc2cc1C", "residual activity": 103}
{"molecule": "Nc1n[nH]c2nnc(-c3c(-c4ccccc4)nn4ccccc34)cc12", "residual activity": 94.6}
{"molecule": "O=C1Nc2ccccc2/C1=C\\c1c(Cl)[nH]c2ccccc12", "residual activity": 101}
{"target": "FGFR1 (human) (UniProt P11362)", "assay": "radiometric filter-binding kinase assay, Kinase HotSpot", "details": "compound 0.5 µM; ATP 10 µM", "units": {"residual activity": "%"}}
{"molecule": "Cc1cc2ncc(-c3ccccc3)nc2cc1C", "residual activity": 91.9}
{"molecule": "Nc1n[nH]c2nnc(-c3c(-c4ccccc4)nn4ccccc34)cc12", "residual activity": 94.7}
{"molecule": "O=C1Nc2ccccc2/C1=C\\c1c(Cl)[nH]c2ccccc12", "residual activity": 92}
{"target": "PRKG2 (human) (UniProt Q13237)", "sequence (Q13237 whole entry, looked up)": "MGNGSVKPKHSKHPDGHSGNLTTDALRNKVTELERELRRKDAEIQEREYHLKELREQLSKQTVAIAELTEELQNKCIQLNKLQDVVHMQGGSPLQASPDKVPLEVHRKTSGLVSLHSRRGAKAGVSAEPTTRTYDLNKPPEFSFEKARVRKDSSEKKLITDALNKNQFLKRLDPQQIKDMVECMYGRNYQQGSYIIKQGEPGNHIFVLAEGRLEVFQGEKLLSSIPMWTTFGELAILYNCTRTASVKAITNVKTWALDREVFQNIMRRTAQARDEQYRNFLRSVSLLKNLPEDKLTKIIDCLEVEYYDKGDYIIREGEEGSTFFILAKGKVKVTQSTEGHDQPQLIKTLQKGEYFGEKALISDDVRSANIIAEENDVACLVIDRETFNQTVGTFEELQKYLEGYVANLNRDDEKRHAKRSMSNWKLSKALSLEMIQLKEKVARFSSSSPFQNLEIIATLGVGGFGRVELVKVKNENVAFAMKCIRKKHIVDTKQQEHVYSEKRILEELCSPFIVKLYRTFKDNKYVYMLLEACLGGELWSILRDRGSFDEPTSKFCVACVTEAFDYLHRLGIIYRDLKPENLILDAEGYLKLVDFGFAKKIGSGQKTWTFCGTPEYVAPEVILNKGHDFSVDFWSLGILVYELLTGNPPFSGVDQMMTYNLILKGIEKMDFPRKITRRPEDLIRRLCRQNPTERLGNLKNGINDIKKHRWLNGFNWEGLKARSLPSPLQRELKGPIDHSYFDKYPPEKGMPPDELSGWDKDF", "assay": "radiometric filter-binding kinase assay, Kinase HotSpot", "details": "compound 0.5 µM; ATP 10 µM", "units": {"residual activity": "%"}}
{"molecule": "Cc1cc2ncc(-c3ccccc3)nc2cc1C", "residual activity": 99.3}
{"molecule": "Nc1n[nH]c2nnc(-c3c(-c4ccccc4)nn4ccccc34)cc12", "residual activity": 104}
{"molecule": "O=C1Nc2ccccc2/C1=C\\c1c(Cl)[nH]c2ccccc12", "residual activity": 71.7}
{"target": "ALK (human) (UniProt Q9UM73)", "assay": "radiometric filter-binding kinase assay, Kinase HotSpot", "details": "compound 0.5 µM; ATP 10 µM", "units": {"residual activity": "%"}}
{"molecule": "Cc1cc2ncc(-c3ccccc3)nc2cc1C", "residual activity": 98}
{"molecule": "Nc1n[nH]c2nnc(-c3c(-c4ccccc4)nn4ccccc34)cc12", "residual activity": 108}
{"molecule": "O=C1Nc2ccccc2/C1=C\\c1c(Cl)[nH]c2ccccc12", "residual activity": 97.9}
{"target": "FGR (human) (UniProt P09769)", "assay": "radiometric filter-binding kinase assay, Kinase HotSpot", "details": "compound 0.5 µM; ATP 10 µM", "units": {"residual activity": "%"}}
{"molecule": "Cc1cc2ncc(-c3ccccc3)nc2cc1C", "residual activity": 99.1}
{"molecule": "Nc1n[nH]c2nnc(-c3c(-c4ccccc4)nn4ccccc34)cc12", "residual activity": 92.9}
{"molecule": "O=C1Nc2ccccc2/C1=C\\c1c(Cl)[nH]c2ccccc12", "residual activity": 90.5}
{"target": "MAP4K5 (human) (UniProt Q9Y4K4)", "sequence (Q9Y4K4 whole entry, looked up)": "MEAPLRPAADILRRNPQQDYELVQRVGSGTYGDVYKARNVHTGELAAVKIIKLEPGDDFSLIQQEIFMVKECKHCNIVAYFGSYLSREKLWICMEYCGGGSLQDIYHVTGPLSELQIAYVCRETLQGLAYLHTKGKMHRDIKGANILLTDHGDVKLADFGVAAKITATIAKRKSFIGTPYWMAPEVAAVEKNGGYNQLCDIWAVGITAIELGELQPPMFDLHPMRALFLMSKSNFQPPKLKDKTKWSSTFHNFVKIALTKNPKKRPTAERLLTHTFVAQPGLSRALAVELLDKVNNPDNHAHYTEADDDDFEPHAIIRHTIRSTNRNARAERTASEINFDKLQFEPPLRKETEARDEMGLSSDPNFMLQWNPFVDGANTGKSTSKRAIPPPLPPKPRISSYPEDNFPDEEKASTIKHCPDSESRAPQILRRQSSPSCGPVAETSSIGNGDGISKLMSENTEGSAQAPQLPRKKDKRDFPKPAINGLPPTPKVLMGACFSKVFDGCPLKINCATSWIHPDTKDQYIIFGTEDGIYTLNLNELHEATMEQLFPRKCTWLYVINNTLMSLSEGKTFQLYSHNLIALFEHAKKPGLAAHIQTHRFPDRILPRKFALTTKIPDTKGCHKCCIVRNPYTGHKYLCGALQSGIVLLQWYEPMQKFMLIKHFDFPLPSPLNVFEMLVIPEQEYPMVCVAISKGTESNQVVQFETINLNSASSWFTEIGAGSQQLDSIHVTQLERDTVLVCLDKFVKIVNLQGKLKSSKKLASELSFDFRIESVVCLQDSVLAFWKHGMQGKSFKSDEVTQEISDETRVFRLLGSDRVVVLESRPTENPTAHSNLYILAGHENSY", "assay": "radiometric filter-binding kinase assay, Kinase HotSpot", "details": "compound 0.5 µM; ATP 10 µM", "units": {"residual activity": "%"}}
{"molecule": "Cc1cc2ncc(-c3ccccc3)nc2cc1C", "residual activity": 89.3}
{"molecule": "Nc1n[nH]c2nnc(-c3c(-c4ccccc4)nn4ccccc34)cc12", "residual activity": 50.3}
{"molecule": "O=C1Nc2ccccc2/C1=C\\c1c(Cl)[nH]c2ccccc12", "residual activity": 95}
{"target": "PDPK1 (human) (UniProt O15530)", "sequence (O15530 whole entry, looked up)": "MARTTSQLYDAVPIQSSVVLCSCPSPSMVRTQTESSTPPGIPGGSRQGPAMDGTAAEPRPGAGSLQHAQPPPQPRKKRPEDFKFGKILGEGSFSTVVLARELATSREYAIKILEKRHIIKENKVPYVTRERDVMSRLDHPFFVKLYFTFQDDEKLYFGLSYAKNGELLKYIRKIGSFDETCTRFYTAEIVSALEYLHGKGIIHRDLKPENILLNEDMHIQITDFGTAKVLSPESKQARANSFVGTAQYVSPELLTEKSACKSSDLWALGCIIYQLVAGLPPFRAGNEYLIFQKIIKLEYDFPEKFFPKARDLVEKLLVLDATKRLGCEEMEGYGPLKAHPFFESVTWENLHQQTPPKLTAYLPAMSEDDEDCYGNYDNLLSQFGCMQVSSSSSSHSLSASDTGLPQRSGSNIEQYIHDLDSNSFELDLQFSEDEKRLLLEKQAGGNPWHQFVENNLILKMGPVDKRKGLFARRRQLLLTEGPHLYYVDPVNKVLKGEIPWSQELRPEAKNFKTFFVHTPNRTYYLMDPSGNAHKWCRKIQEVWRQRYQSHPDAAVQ", "assay": "radiometric filter-binding kinase assay, Kinase HotSpot", "details": "compound 0.5 µM; ATP 10 µM", "units": {"residual activity": "%"}}
{"molecule": "Cc1cc2ncc(-c3ccccc3)nc2cc1C", "residual activity": 103}
{"molecule": "Nc1n[nH]c2nnc(-c3c(-c4ccccc4)nn4ccccc34)cc12", "residual activity": 104}
{"molecule": "O=C1Nc2ccccc2/C1=C\\c1c(Cl)[nH]c2ccccc12", "residual activity": 94.3}
{"target": "GSG2 (human) (UniProt Q8TF76)", "assay": "radiometric filter-binding kinase assay, Kinase HotSpot", "details": "compound 0.5 µM; ATP 10 µM", "units": {"residual activity": "%"}}
{"molecule": "Cc1cc2ncc(-c3ccccc3)nc2cc1C", "residual activity": 91.5}
{"molecule": "Nc1n[nH]c2nnc(-c3c(-c4ccccc4)nn4ccccc34)cc12", "residual activity": 97.1}
{"molecule": "O=C1Nc2ccccc2/C1=C\\c1c(Cl)[nH]c2ccccc12", "residual activity": 91}
{"target": "PRKCA (human) (UniProt P17252)", "assay": "radiometric filter-binding kinase assay, Kinase HotSpot", "details": "compound 0.5 µM; ATP 10 µM", "units": {"residual activity": "%"}}
{"molecule": "Cc1cc2ncc(-c3ccccc3)nc2cc1C", "residual activity": 90.5}
{"molecule": "Nc1n[nH]c2nnc(-c3c(-c4ccccc4)nn4ccccc34)cc12", "residual activity": 87.2}
{"molecule": "O=C1Nc2ccccc2/C1=C\\c1c(Cl)[nH]c2ccccc12", "residual activity": 63.2}
{"target": "SGK2 (human) (UniProt Q9HBY8)", "sequence (Q9HBY8 whole entry, looked up)": "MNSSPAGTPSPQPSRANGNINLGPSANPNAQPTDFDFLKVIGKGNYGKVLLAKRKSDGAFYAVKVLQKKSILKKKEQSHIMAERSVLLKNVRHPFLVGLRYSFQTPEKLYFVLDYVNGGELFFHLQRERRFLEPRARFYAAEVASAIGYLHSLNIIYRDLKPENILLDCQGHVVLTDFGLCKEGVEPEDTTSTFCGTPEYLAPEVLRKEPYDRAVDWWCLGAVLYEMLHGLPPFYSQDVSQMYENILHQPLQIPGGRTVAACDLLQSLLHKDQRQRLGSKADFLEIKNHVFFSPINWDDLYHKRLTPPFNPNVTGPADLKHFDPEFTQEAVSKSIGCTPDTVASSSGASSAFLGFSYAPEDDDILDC", "assay": "radiometric filter-binding kinase assay, Kinase HotSpot", "details": "compound 0.5 µM; ATP 10 µM", "units": {"residual activity": "%"}}
{"molecule": "Cc1cc2ncc(-c3ccccc3)nc2cc1C", "residual activity": 101}
{"molecule": "Nc1n[nH]c2nnc(-c3c(-c4ccccc4)nn4ccccc34)cc12", "residual activity": 98.8}
{"molecule": "O=C1Nc2ccccc2/C1=C\\c1c(Cl)[nH]c2ccccc12", "residual activity": 103}
{"target": "MAP3K7 TAB1 (human) (UniProt O43318+Q15750)", "assay": "radiometric filter-binding kinase assay, Kinase HotSpot", "details": "compound 0.5 µM; ATP 10 µM", "units": {"residual activity": "%"}}
{"molecule": "Cc1cc2ncc(-c3ccccc3)nc2cc1C", "residual activity": 89.9}
{"molecule": "Nc1n[nH]c2nnc(-c3c(-c4ccccc4)nn4ccccc34)cc12", "residual activity": 101}
{"molecule": "O=C1Nc2ccccc2/C1=C\\c1c(Cl)[nH]c2ccccc12", "residual activity": 99.2}
{"target": "PRKCD (human) (UniProt Q05655)", "assay": "radiometric filter-binding kinase assay, Kinase HotSpot", "details": "compound 0.5 µM; ATP 10 µM", "units": {"residual activity": "%"}}
{"molecule": "Cc1cc2ncc(-c3ccccc3)nc2cc1C", "residual activity": 92.3}
{"molecule": "Nc1n[nH]c2nnc(-c3c(-c4ccccc4)nn4ccccc34)cc12", "residual activity": 31.2}
{"molecule": "O=C1Nc2ccccc2/C1=C\\c1c(Cl)[nH]c2ccccc12", "residual activity": 88.4}
{"target": "RPS6KA3 KD1 KD2 (human) (UniProt P51812)", "assay": "radiometric filter-binding kinase assay, Kinase HotSpot", "details": "compound 0.5 µM; ATP 10 µM", "units": {"residual activity": "%"}}
{"molecule": "Cc1cc2ncc(-c3ccccc3)nc2cc1C", "residual activity": 94.2}
{"molecule": "Nc1n[nH]c2nnc(-c3c(-c4ccccc4)nn4ccccc34)cc12", "residual activity": 98.7}
{"molecule": "O=C1Nc2ccccc2/C1=C\\c1c(Cl)[nH]c2ccccc12", "residual activity": 82.9}
{"target": "MAPK13 (human) (UniProt O15264)", "sequence (O15264 whole entry, looked up)": "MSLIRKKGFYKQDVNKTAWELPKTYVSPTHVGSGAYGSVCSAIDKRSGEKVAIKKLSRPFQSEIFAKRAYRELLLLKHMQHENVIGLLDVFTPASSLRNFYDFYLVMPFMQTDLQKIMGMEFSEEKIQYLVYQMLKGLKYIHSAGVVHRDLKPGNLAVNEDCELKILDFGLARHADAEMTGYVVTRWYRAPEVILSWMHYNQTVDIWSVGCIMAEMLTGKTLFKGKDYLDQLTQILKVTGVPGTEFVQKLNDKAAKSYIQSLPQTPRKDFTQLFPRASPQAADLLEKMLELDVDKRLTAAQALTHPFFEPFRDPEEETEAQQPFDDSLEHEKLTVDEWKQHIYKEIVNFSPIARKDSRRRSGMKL", "assay": "radiometric filter-binding kinase assay, Kinase HotSpot", "details": "compound 0.5 µM; ATP 10 µM", "units": {"residual activity": "%"}}
{"molecule": "Cc1cc2ncc(-c3ccccc3)nc2cc1C", "residual activity": 107}
{"molecule": "Nc1n[nH]c2nnc(-c3c(-c4ccccc4)nn4ccccc34)cc12", "residual activity": 101}
{"molecule": "O=C1Nc2ccccc2/C1=C\\c1c(Cl)[nH]c2ccccc12", "residual activity": 98.9}
{"target": "JAK1 JH1 catalytic (human) (UniProt P23458)", "sequence (P23458 whole entry, looked up)": "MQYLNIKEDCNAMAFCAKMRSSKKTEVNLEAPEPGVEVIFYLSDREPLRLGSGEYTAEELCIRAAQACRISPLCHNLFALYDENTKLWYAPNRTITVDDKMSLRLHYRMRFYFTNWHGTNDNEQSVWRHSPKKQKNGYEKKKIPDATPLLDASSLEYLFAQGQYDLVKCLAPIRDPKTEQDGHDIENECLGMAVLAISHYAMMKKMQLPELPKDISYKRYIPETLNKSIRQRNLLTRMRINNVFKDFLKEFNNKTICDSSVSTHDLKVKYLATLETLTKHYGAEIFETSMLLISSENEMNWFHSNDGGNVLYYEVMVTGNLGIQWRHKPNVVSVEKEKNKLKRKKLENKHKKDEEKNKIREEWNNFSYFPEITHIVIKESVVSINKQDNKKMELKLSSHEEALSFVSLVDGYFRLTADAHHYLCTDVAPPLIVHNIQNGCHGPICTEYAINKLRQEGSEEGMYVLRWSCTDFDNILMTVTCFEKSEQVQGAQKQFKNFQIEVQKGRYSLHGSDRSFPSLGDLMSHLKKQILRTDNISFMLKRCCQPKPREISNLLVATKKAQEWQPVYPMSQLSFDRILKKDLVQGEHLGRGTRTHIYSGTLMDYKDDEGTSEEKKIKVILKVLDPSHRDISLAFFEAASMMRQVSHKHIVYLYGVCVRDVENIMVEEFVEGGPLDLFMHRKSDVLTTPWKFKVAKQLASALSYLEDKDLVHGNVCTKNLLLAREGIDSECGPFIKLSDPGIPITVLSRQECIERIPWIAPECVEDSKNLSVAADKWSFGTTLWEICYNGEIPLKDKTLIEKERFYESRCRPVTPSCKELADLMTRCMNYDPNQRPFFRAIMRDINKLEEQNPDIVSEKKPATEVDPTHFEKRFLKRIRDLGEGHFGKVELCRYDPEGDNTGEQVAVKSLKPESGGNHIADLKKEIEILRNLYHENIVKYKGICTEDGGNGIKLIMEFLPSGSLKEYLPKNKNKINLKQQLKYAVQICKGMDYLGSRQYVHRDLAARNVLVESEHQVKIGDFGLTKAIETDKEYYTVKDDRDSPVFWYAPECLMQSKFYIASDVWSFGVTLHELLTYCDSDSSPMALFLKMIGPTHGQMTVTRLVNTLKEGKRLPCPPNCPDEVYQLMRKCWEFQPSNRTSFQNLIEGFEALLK", "assay": "radiometric filter-binding kinase assay, Kinase HotSpot", "details": "compound 0.5 µM; ATP 10 µM", "units": {"residual activity": "%"}}
{"molecule": "Cc1cc2ncc(-c3ccccc3)nc2cc1C", "residual activity": 103}
{"molecule": "Nc1n[nH]c2nnc(-c3c(-c4ccccc4)nn4ccccc34)cc12", "residual activity": 104}
{"molecule": "O=C1Nc2ccccc2/C1=C\\c1c(Cl)[nH]c2ccccc12", "residual activity": 96.6}
{"target": "FRK (human) (UniProt P42685)", "assay": "radiometric filter-binding kinase assay, Kinase HotSpot", "details": "compound 0.5 µM; ATP 10 µM", "units": {"residual activity": "%"}}
{"molecule": "Cc1cc2ncc(-c3ccccc3)nc2cc1C", "residual activity": 99.1}
{"molecule": "Nc1n[nH]c2nnc(-c3c(-c4ccccc4)nn4ccccc34)cc12", "residual activity": 101}
{"molecule": "O=C1Nc2ccccc2/C1=C\\c1c(Cl)[nH]c2ccccc12", "residual activity": 100}
